Calls of active or inactive are those of the source. The calls are words filed in the database; no cut-off is given here. A value given as a limit tells only on which side of the number the result lay.

The subject of data set [1] is CHO-AA8. Nature of the data set: Concentration x time (uM h) to reduce cell survival to 10% of control values under hypoxic conditions by clonogenic assay. The class given is ADME, cell-based, Cricetulus griseus. The note with it: chinese hamster.
Data set [2] deals with CHO-AA8. The data set is described as follows: Aerobic growth inhibition in Chinese hamster cell line AA8. The class given is functional, cell-based. As to conditions: Cricetulus griseus.
Data set [3] deals with EMT6. Nature of the data set: Hypersensitivity (HF) factor in murine mammary carcinoma EMT6 cells [HF= ratio (IC50 in AA8 cells)/(IC50 in EMT6)]. Type of data set: functional, Mus musculus.
In data set [4] the test system is FME. Nature of the data set: Hypersensitivity (HF) factor in human melanoma FME cells [HF= ratio (IC50 in AA8 cells)/(IC50 in FME cells)]. The class given is functional.
The test system of data set [5] is UV4. The data set is described as follows: Hypersensitivity (HF) factor in chinese hamster cell line UV4 [HF= ratio (IC50 in AA8 cells)/(IC50 in UV4 cells)]. Type of data set: functional, Cricetulus griseus.
Data set [6] is described as follows: Ratio between aerobic CT10 and hypoxic CT10. Type of data set: functional.
Data set [7] deals with EMT6. The data set is described as follows: Evaluated for hypersensitivity (HF) factor in murine mammary carcinoma EMT6 cells as HF=IC50 for AA8/IC50 for the murine mammary carcinoma EMT6; f means inactive at the solubility limit. The class given is functional, cell-based. The note with it: Mus musculus.
A short description of data set [8]: Ratio between aerobic CT10 and hypoxic CT10; No aerobic cytotoxicity at the solubility limit.
Data set [9] deals with CHO-AA8. The data set is described as follows: Concentration x time (uM h) to reduce cell survival to 10% of control values under hypoxic conditions by clonogenic assay. Inactive at the solubility limit. The class given is ADME, cell-based, Cricetulus griseus. As to conditions: chinese hamster.
The subject of data set [10] is FME. The data set is described as follows: Evaluated for hypersensitivity (HF) factor in human melanoma FME cells as HF=IC50 for AA8/IC50 for the human melanoma FME; f means inactive at the solubility limit. The class given is functional, cell-based.
Data set [11] relates to UV4. The data set is described as follows: Evaluated for hypersensitivity (HF) factor in chinese hamster cell line UV4; Evaluated as HF=IC50 for AA8/IC50 for the chinese hamster cell line UV4; f means inactive at solubility limit. The note with it: Cricetulus griseus. The class given is functional, cell-based.

On to `O=[N+]([O-])c1nccn1CCCNCCCn1ccnc1[N+](=O)[O-]`, for which, in the data set on CHO-AA8 [1], the CT10 came to 2300 µM·h. The compound also registered an IC50 with CHO-AA8 [2] of 1.18 mM. The HF with EMT6 [3] stood at 5.37; in the data set with FME [4] it was 2.58; with UV4 [5] it was 0.9. Moreover, in data set [6], the selectivity ratio amounted to 40.
Compound `CN(CCCn1ccnc1[N+](=O)[O-])CCCn1ccnc1[N+](=O)[O-]` came in with a CT10 in the data set with CHO-AA8 [1] of 700 µM·h. The compound further registered an IC50 in the data set on CHO-AA8 [2] of 0.81 mM. Further, the results for the HF with EMT6 [3], in the data set with FME [4] and in the data set with UV4 [5] were 2.6, 2.55 and 0.97, respectively. Moreover, in data set [6], the selectivity ratio was found to be 40.
`Cc1ncc([N+](=O)[O-])n1CC(O)Cn1ccnc1[N+](=O)[O-]` (stereo not drawn) returned a CT10 with CHO-AA8 [1] of 2400 µM·h. Moreover, in the data set with CHO-AA8 [2], the half-maximal inhibitory concentration (IC50) is over 0.8 mM. Moreover, the HF entry with EMT6 [7] is “Inactive at solubility limit”; in the data set with FME [4], over 1.11; in the data set on UV4 [5], over 0.85. In data set [8], the selectivity ratio was over 3.
In the data set with CHO-AA8 [1], `O=C(CCCn1cnc([N+](=O)[O-])n1)NCCCn1ccnc1[N+](=O)[O-]` registered a CT10 of 17000 µM·h. The same compound registered an IC50 with CHO-AA8 [2] of 5.28 mM. For the same compound, the HF with EMT6 [3] amounted to 8.38; in the data set on FME [4], 5.94; in the data set with UV4 [5], 1.25. For the same compound, the selectivity ratio in [6] came out at 3.5.
In the data set with CHO-AA8 [1], `O=C(CCCn1cnc([N+](=O)[O-])n1)NCCn1ccnc1[N+](=O)[O-]` returned a CT10 of 15000 µM·h. This compound gave an IC50 in the data set with CHO-AA8 [2] of 1.71 mM. The HF in the data set on EMT6 [3] is reported as 1.76; in the data set on FME [4], over 1.9; in the data set on UV4 [5], 1.17. Besides, the selectivity ratio in data set [8] is over 1.
In the data set with CHO-AA8 [2], `Cc1ncc([N+](=O)[O-])n1CCNS(=O)(=O)CCCn1cnc([N+](=O)[O-])n1` displayed an IC50 of 1.14 mM. In addition, the HF was under 1.35 in the data set with EMT6 [3], 1.19 with FME [4] and under 1.35 in the data set with UV4 [5].
`C[N+](C)(CCCn1ccnc1[N+](=O)[O-])CCCn1ccnc1[N+](=O)[O-].[I-]` showed a CT10 with CHO-AA8 [1] of 23000 µM·h. Moreover, in the data set on CHO-AA8 [2], half-maximal inhibition (IC50) was put at 3.65 mM. For the same compound, the figures for the HF with EMT6 [3], in the data set with FME [4] and in the data set with UV4 [5] were 24.2, 4.85 and 0.89, respectively. In data set [6], the selectivity ratio is 10.
In the data set on CHO-AA8 [1], `Cc1ncc([N+](=O)[O-])n1CCNC(=O)CCCn1cnc([N+](=O)[O-])n1` displayed a CT10 of 100000 µM·h. In the data set on CHO-AA8 [2], this compound registered an IC50 of 6.42 mM. The figures for the HF in the data set on EMT6 [3], in the data set on FME [4] and in the data set on UV4 [5] were 4.94, 4.51 and 1.2, respectively. Moreover, the selectivity ratio in data set [6] was over 1.3.
In the data set with CHO-AA8 [1], `Cc1ncc([N+](=O)[O-])n1CCNC(=O)CCC(=O)NCCn1ccnc1[N+](=O)[O-]` displayed a CT10 of 47000 µM·h. Moreover, half-maximal inhibition in the data set on CHO-AA8 [2] (IC50) required 6.6 mM. Besides, the HF in the data set on EMT6 [3] stood at 7.09; with FME [4], 3.49; in the data set on UV4 [5], 1. Further, in data set [8], the selectivity ratio was over 6.
`O=[N+]([O-])c1nccn1CC(O)CN1CCCCC1` (stereo not drawn) [PIMONIDAZOLE] came in with a CT10 with CHO-AA8 [1] of 3500 µM·h. The same compound gave a half-inhibitory concentration (IC50) in the data set with CHO-AA8 [2] of 3.03 mM. The HF with EMT6 [3] was 6.3; in the data set on FME [4], 4.07; in the data set on UV4 [5] it was 1.37. Moreover, in data set [6], the selectivity ratio came out at 40.
In the data set on CHO-AA8 [1], `O=C(CCCn1ccnc1[N+](=O)[O-])NCCn1cnc([N+](=O)[O-])n1` yielded a CT10 of 17000 µM·h. The 50% inhibitory concentration (IC50) in the data set with CHO-AA8 [2] is 6.92 mM. The HF in the data set on EMT6 [3] stood at 10.7; in the data set on FME [4] it was 6.9; with UV4 [5], 1.19. Moreover, the selectivity ratio in [8] was over 6.
In the case of `Cc1ncc([N+](=O)[O-])n1CCN(C)C(=O)CCCn1ccnc1[N+](=O)[O-]`, the CT10 with CHO-AA8 [1] was 7200 µM·h. Half-maximal inhibition in the data set on CHO-AA8 [2] (IC50) was put at 4.8 mM. Also, the HF is 2.09 with EMT6 [3], 2.83 in the data set with FME [4] and 1.05 in the data set on UV4 [5]. For the same compound, the selectivity ratio in [6] is over 18.
`O=C(NCCCn1ccnc1[N+](=O)[O-])C(=O)NCCCn1ccnc1[N+](=O)[O-]`: the CT10 in the data set with CHO-AA8 [9] was over 700 µM·h. The compound further had a half-maximal inhibitory concentration (IC50) in the data set on CHO-AA8 [2] of over 0.08 mM. The HF result in the data set with EMT6 [7], in the data set on FME [10] and with UV4 [11] was “Inactive at solubility limit” each time.
In turn, `O=[N+]([O-])c1nccn1CC1OC(n2ccnc2[N+](=O)[O-])C(O)C(O)C1O` (stereo not drawn) yielded a CT10 in the data set with CHO-AA8 [1] of 57000 µM·h. The IC50 in the data set on CHO-AA8 [2] was found to be 7.4 mM. The HF with EMT6 [3] is recorded as under 0.8; in the data set on FME [4] it was 2.44; in the data set on UV4 [5], 0.89. Also, in data set [8], the selectivity ratio was over 1.5.
In turn, `Cc1ncc([N+](=O)[O-])n1CCNC(=O)CCCn1ccnc1[N+](=O)[O-]` registered a CT10 in the data set with CHO-AA8 [1] of 12000 µM·h. The HF in the data set on EMT6 [3] worked out at 4.64; with FME [4] it was 3.51; with UV4 [5] it was 1.38. Also, the selectivity ratio in [6] turned out to be 8.
`Cc1ncc([N+](=O)[O-])n1CCNCCCCn1ccnc1[N+](=O)[O-]` returned a CT10 with CHO-AA8 [1] of 2400 µM·h. The compound further showed a concentration for half-maximal inhibition (IC50) in the data set with CHO-AA8 [2] of 2 mM. In addition, the HF is listed as 2.12 in the data set with EMT6 [3], 1.27 in the data set with FME [4] and 1.07 in the data set with UV4 [5]. In data set [6], the selectivity ratio is 12.
The compound `Cc1ncc([N+](=O)[O-])n1CCNCCCn1ccnc1[N+](=O)[O-]` showed a CT10 with CHO-AA8 [1] of 2400 µM·h. Besides, in the data set on CHO-AA8 [2], the IC50 came out at 4.74 mM. For the same compound, the HF came out at 4.73 in the data set with EMT6 [3], 3.61 in the data set with FME [4] and 1.42 in the data set on UV4 [5]. For the same compound, the selectivity ratio in data set [6] is 14.
With `COCC(O)Cn1ccnc1[N+](=O)[O-]` (stereo not drawn) [MISONIDAZOLE], in the data set on CHO-AA8 [1], the CT10 was 16000 µM·h. Further, the HF is 3.6 in the data set on EMT6 [3], 1.94 in the data set with FME [4] and 1.37 with UV4 [5]. In addition, the selectivity ratio in data set [6] turned out to be 18.
`Cc1ncc([N+](=O)[O-])n1CCN(C)CCCCn1ccnc1[N+](=O)[O-]`: the CT10 in the data set with CHO-AA8 [1] is 2000 µM·h. In addition, in the data set with CHO-AA8 [2], the IC50 worked out at 1 mM. The HF with EMT6 [3] came to 1.44; in the data set with FME [4] it was 1.54; in the data set on UV4 [5], 0.98. The selectivity ratio in data set [6] came out at 8.
Turning to `Cc1ncc([N+](=O)[O-])n1CC(O)Cn1cnc([N+](=O)[O-])n1` (stereo not drawn), in the data set on CHO-AA8 [1], the CT10 was over 47000 µM·h. For the same compound, half-maximal inhibition in the data set on CHO-AA8 [2] (IC50) was put at 2.3 mM. For the same compound, the figures for the HF with EMT6 [3], in the data set with FME [4] and in the data set on UV4 [5] were 4.85, 3.63 and 1.16, respectively.
In the case of `Cc1ncc([N+](=O)[O-])n1CCNS(=O)(=O)CCCn1ccnc1[N+](=O)[O-]`, the half-maximal inhibitory concentration (IC50) in the data set with CHO-AA8 [2] is over 40.3 mM. The HF in the data set on EMT6 [3] was over 0.84; with FME [4] it was over 0.91; in the data set on UV4 [11], “Inactive at solubility limit”.
With `O=[N+]([O-])c1nccn1CC(O)CNCCBr` (stereo not drawn), the CT10 in the data set on CHO-AA8 [1] came out at 400 µM·h. Further, the HF in the data set on EMT6 [3] is reported as 1.55; in the data set with FME [4] it was 1; in the data set with UV4 [5] it was 5.85. Besides, in [6], the selectivity ratio amounted to 20.

What is called IC50 is the concentration that inhibits the measured activity by half. A low value points to greater potency.

Values taken from ChEMBL document CHEMBL1128381, “Hypoxia-selective antitumor agents. 10. bis(nitroimidazoles) and related Bis(nitroheterocycles): development of derivatives with higher rates of metabolic activation under hypoxia and improved aqueous solubility” (J Med Chem, 1995).
